Here are results for two compounds from ChEMBL document CHEMBL1121753 (J Med Chem, 1981).

In one series the test system is ADJ/PC6. Nature of the series: Compound was tested for dose producing 90% reduction in tumor weight, in ADJ/PC6 mouse plasma cell tumor.
Series [1] is described as follows: Compound was tested for dose required to kill 50 % of ADJ/PC6 mouse plasma cell tumor in a group.
Series [2] can be described thus: Therapeutic index as the ratio of LD50 to ED50 of the compound.

Usually LD50 stands for the dose at which mortality reaches 50%. Read a low LD50 as a more toxic substance. In the series with ADJ/PC6, `[2H]C1([2H])CNP(=O)(N(CCCl)CCCl)OC1` (stereo unspecified) came in with an ED90 of 12 mg/kg. In series [1], this compound had an LD50 of 700 mg/kg. The selectivity ratio in series [2] came to 58.

The compound `O=P1(N(CCCl)CCCl)NCCCO1` (stereo unspecified) [CYCLOPHOSPHAMIDE ANHYDROUS] yielded an ED90 with ADJ/PC6 of 2.25 mg/kg. The LD50 in series [1] was 260 mg/kg. Also, the selectivity ratio in series [2] came out at 116.
